Assay results reported in US12371428B2 (Exelixis, Inc., priority 2019, dated 2025).
Read-outs that look alike come from different tables or passages of the source.

Legend:
[1] = target: Met (phospho-Met, HGF-stimulated PC-3 prostate cancer cells) (Homo sapiens (Human), UniProt P08581); test: Met autophosphorylation ELISA in PC-3 cells (Example F); assay type: cell-based; settings: cellular activity; Met autophosphorylation ELISA in PC-3 cells; read-out: c-Met IC50
Summary of the method: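 Compounds were tested on HGF-stimulated PC-3 cells. After 24 h culture and 3 h serum starvation, cells got compound for 1 h and 100 ng/mL HGF for 10 min, and Met tyrosine phosphorylation was measured by ELISA.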

[2] = target: Human Mer (residues R557-E882 with H628Q and R794A) (Homo sapiens, UniProt Q12866); test: Human Mer kinase assay, 33P-phosphoryl transfer radiometric (Example C-1, KinaseProfiler); assay type: biochemical
Description: Kinase activity and compound inhibition were investigated using the ^33P-Phosphoryl transfer radiometric kinase assay, performed using the KinaseProfiler™ service of Eurofins Pharma Discovery Services UK Limited. Dose-response experiments were performed using nine compound concentrations in a 96-well microtiter plate. For each assay, all compounds were prepared to a 50× final assay concentration (50 μM) in 100% DMSO, then diluted in a half-log series, with the final top concentration at 1 μM. This working stock of the compound was added to the assay well as the first component in the reaction, followed by the remaining components as detailed in the following assay protocols below. The positive control wells (100% kinase activity) contain all components of the reaction including 2% DMSO (control for solvent effects), except the compound of interest. Blank wells contain all components of the reaction, with the reference inhibitor, staurosporine. This reference compound was used to abolish kinase activity and generated the 0% kinase activity base-line. IC50 values were calculated by nonlinear regression analysis using the sigmoidal dose-response (variable slope) curve fit on XLFit version 5.3 (ID Business Solutions).
Example C-1: Human Mer (residues R557-E882 with H628Q and R794A, 0.7 nM) was incubated with 8 mM MOPS pH 7.0, 0.2 mM EDTA, 30 mM NaCl, 250 μM […] (SEQ ID NO:2), 10 mM magnesium acetate, and 10 μM [γ-^33P-ATP]. The reaction was initiated by the addition of the Mg/ATP mix. After incubation for 40 minutes at room temperature, the reaction was stopped by the addition of phosphoric acid to a concentration of 0.5%. A reaction aliquot of 10 μL was then spotted onto a P30 filtermat and washed four times for 4 minutes in 0.425% phosphoric acid and once in methanol prior to drying and scintillation counting. Incorporated ^33P was measured using the Wallac Microbeta scintillation counter (Perkin Elmer).

[3] = protocol of Example C-1 (compounds 21-27, 41-47, 99, 104)

Sequence of Human Mer (residues R557-E882 with H628Q and R794A) (Q12866 21-999 limits assumed, stated change not applied): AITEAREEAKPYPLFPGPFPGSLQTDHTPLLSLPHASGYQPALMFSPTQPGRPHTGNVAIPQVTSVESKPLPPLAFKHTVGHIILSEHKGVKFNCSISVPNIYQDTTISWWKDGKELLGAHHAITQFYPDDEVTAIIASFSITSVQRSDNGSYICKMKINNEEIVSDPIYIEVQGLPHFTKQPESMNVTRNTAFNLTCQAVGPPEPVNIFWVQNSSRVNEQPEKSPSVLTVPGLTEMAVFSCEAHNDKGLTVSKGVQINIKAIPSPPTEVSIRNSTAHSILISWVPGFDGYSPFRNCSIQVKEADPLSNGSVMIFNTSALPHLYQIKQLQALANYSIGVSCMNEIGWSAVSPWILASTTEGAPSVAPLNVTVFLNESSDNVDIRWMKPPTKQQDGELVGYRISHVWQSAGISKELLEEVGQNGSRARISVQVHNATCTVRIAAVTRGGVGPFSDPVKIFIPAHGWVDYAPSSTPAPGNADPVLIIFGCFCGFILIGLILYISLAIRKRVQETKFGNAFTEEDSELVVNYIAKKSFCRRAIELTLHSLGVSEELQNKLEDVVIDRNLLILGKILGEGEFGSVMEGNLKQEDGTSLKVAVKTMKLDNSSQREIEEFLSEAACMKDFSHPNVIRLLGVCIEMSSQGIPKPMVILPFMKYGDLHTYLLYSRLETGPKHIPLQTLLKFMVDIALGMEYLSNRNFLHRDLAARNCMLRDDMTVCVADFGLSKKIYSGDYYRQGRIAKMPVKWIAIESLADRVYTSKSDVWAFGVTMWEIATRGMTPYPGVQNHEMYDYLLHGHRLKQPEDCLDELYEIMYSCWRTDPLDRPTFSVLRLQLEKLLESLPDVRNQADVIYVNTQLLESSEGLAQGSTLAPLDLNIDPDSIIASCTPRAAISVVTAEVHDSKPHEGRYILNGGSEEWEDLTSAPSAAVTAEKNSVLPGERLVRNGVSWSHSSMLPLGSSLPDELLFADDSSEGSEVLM
Sequence of Met (phospho-Met, HGF-stimulated PC-3 prostate cancer cells) (P08581 25-1390): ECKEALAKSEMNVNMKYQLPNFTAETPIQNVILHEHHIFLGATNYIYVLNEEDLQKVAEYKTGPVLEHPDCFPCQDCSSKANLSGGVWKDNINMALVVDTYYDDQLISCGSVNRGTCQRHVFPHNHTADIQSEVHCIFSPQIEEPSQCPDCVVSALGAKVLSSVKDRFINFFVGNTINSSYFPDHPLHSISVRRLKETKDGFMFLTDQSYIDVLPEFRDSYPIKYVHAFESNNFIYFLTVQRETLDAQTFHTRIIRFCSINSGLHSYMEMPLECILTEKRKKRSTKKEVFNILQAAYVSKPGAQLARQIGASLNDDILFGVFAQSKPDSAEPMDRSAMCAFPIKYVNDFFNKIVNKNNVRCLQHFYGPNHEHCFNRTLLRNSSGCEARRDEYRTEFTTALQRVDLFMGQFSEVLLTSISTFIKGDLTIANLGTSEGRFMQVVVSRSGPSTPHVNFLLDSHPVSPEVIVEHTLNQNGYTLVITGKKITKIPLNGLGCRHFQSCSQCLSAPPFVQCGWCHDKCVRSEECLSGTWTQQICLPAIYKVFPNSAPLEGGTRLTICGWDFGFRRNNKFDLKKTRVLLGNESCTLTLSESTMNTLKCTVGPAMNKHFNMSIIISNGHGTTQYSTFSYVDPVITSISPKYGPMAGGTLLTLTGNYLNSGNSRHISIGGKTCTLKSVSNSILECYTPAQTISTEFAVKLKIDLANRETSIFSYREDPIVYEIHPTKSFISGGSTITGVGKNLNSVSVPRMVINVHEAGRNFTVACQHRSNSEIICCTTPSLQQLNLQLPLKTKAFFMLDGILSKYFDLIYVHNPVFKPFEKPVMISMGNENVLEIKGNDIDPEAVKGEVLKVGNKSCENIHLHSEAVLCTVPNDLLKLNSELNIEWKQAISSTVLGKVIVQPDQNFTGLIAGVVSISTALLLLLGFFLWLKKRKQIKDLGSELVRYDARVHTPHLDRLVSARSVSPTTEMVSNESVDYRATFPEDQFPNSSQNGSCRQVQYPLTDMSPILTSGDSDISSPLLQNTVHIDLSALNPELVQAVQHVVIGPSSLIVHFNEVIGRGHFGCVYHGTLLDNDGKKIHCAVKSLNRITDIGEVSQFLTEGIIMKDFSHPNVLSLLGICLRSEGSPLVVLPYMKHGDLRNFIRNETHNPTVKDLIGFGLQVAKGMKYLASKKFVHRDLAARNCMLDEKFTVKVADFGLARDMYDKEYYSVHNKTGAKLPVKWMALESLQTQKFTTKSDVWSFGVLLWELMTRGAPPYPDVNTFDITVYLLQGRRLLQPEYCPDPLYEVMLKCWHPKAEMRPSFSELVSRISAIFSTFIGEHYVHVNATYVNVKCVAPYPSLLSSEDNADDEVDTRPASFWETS

Row | Structure (SMILES) | IC50 [1] [nM] | IC50 [2, 3] [nM] | IC50 [2] [nM]
1 | COc1cc2nccc(Oc3ccc(NC(=O)c4cn(C(C)C)c(C)c(-c5ccc(Cl)c(Cl)c5)c4=O)cc3F)c2cc1OC [Compound 23, 5-(3,4-Dichlorophenyl)-N-[4-(6,7-dimethoxyquinolin-4-yl)oxy-3-fluorophenyl]-6-methyl-4-oxo-1-propan-2-ylpyridine-3-carboxamide] | 100 to 300 |  | 100 to 300
2 | COc1cc2nccc(Oc3ccc(NC(=O)c4cn(C5CC5)cc(-c5ccc(F)cc5)c4=O)cc3F)c2nc1OC [Compound 41, 1-Cyclopropyl-N-[4-[(6,7-dimethoxy-1,5-naphthyridin-4-yl)oxy]-3-fluorophenyl]-5-(4-fluorophenyl)-4-oxopyridine-3-carboxamide] | < 100 | < 100 | 
3 | COc1cc2nccc(Oc3ccc(NC(=O)c4cn(C(C)C)c(C)c(-c5ccc(F)cc5)c4=O)cc3F)c2cc1OC [Compound 22, N-[4-(6,7-Dimethoxyquinolin-4-yl)oxy-3-fluorophenyl]-5-(4-fluorophenyl)-6-methyl-4-oxo-1-propan-2-ylpyridine-3-carboxamide] | < 100 | < 100 | 
4 | CNc1ncc(C(=O)Nc2ccc(Oc3ccnc4cc(OC)c(OC)nc34)c(F)c2)c(=O)n1-c1ccc(F)cc1 [Compound 99, N-[4-[(6,7-Dimethoxy-1,5-naphthyridin-4-yl)oxy]-3-fluorophenyl]-1-(4-fluorophenyl)-2-(methylamino)-6-oxopyrimidine-5-carboxamide] | < 100 | < 100 | 
5 | COc1cc2nccc(Oc3ccc(NC(=O)c4cn(C(C)C)c(C)c(-c5ccc(F)c(Cl)c5)c4=O)cc3F)c2nc1OC [Compound 24, 5-(3-Chloro-4-fluorophenyl)-N-[4-[(6,7-dimethoxy-1,5-naphthyridin-4-yl)oxy]-3-fluorophenyl]-6-methyl-4-oxo-1-propan-2-ylpyridine-3-carboxamide] | < 100 | < 100 | 
6 | COc1cc2nccc(Oc3ccc(NC(=O)c4c[nH]c(=S)n(-c5ccc(F)cc5)c4=O)cc3F)c2nc1OC [Compound 104, N-[4-[(6,7-Dimethoxy-1,5-naphthyridin-4-yl)oxy]-3-fluorophenyl]-3-(4-fluorophenyl)-4-oxo-2-sulfanylidene-1H-pyrimidine-5-carboxamide] | < 100 | > 300 | 
7 | COc1cc2nccc(Oc3ccc(NC(=O)c4cn(C(C)C)cc(-c5ccc(F)cc5)c4=O)cc3F)c2nc1OC [Compound 44, N-[4-[(6,7-Dimethoxy-1,5-naphthyridin-4-yl)oxy]-3-fluorophenyl]-5-(4-fluorophenyl)-4-oxo-1-propan-2-ylpyridine-3-carboxamide] | < 100 | < 100 | 
8 | COc1cc2nccc(Oc3ccc(NC(=O)c4cn(C5COC5)cc(-c5ccc(F)cc5)c4=O)cc3F)c2nc1OC [Compound 47, N-[4-[(6,7-Dimethoxy-1,5-naphthyridin-4-yl)oxy]-3-fluorophenyl]-5-(4-fluorophenyl)-1-(oxetan-3-yl)-4-oxopyridine-3-carboxamide] | < 100 | < 100 | 
9 | COc1cc2nccc(Oc3ccc(NC(=O)c4cn(C)cc(-c5ccc(F)cc5)c4=O)cc3F)c2nc1OC [Compound 45, N-[4-[(6,7-Dimethoxy-1,5-naphthyridin-4-yl)oxy]-3-fluorophenyl]-5-(4-fluorophenyl)-1-methyl-4-oxopyridine-3-carboxamide] | < 100 | < 100 | 
10 | COc1cc2nccc(Oc3ccc(NC(=O)c4cn(C(C)C)cc(-c5ccc(F)cc5)c4=O)cc3F)c2cc1OC [Compound 43, N-[4-(6,7-Dimethoxyquinolin-4-yl)oxy-3-fluorophenyl]-5-(4-fluorophenyl)-4-oxo-1-propan-2-ylpyridine-3-carboxamide] | < 100 | < 100 | 

Results, then the molecule that gave them:

Row | IC50 [1] [nM] | IC50 [2, 3] [nM] | IC50 [2] [nM] | Structure (SMILES)
11 | < 100 | < 100 |  | COc1cc2nccc(Oc3ccc(NC(=O)c4cn(C5CCCC5)cc(-c5ccc(F)cc5)c4=O)cc3F)c2nc1OC [Compound 46, 1-Cyclopentyl-N-[4-[(6,7-dimethoxy-1,5-naphthyridin-4-yl)oxy]-3-fluorophenyl]-5-(4-fluorophenyl)-4-oxopyridine-3-carboxamide]
12 | < 100 | < 100 |  | COc1cc2nccc(Oc3ccc(NC(=O)c4cn(C(C)C)c(C)c(-c5ccc(Cl)c(Cl)c5)c4=O)cc3F)c2nc1OC [Compound 25, 5-(3,4-Dichlorophenyl)-N-[4-[(6,7-dimethoxy-1,5-naphthyridin-4-yl)oxy]-3-fluorophenyl]-6-methyl-4-oxo-1-propan-2-ylpyridine-3-carboxamide]
13 | < 100 | < 100 |  | COc1cc2nccc(Oc3ccc(NC(=O)c4cn(C5CCCC5)c(C)c(-c5ccc(F)cc5)c4=O)cc3F)c2nc1OC [Compound 26]
14 | < 100 | < 100 |  | COc1cc2nccc(Oc3ccc(NC(=O)c4cn(C(C)C)c(C)c(-c5ccc(F)cc5)c4=O)cc3F)c2nc1OC [Compound 21, N-[4-[(6,7-Dimethoxy-1,5-naphthyridin-4-yl)oxy]-3-fluorophenyl]-5-(4-fluorophenyl)-6-methyl-4-oxo-1-propan-2-ylpyridine-3-carboxamide]
15 | < 100 | < 100 |  | COc1cc2nccc(Oc3ccc(NC(=O)c4cn(C5CCCC5)c(C)c(-c5ccc(F)c(Cl)c5)c4=O)cc3F)c2nc1OC [Compound 27, 5-(3-Chloro-4-fluorophenyl)-1-cyclopentyl-N-[4-[(6,7-dimethoxy-1,5-naphthyridin-4-yl)oxy]-3-fluorophenyl]-6-methyl-4-oxopyridine-3-carboxamide]
16 | < 100 | < 100 |  | COc1cc2nccc(Oc3ccc(NC(=O)c4cncc(-c5ccc(F)cc5)c4O)cc3F)c2nc1OC [Compound 42, N-[4-[(6,7-Dimethoxy-1,5-naphthyridin-4-yl)oxy]-3-fluorophenyl]-5-(4-fluorophenyl)-4-hydroxypyridine-3-carboxamide]
